Assay results reported in PMC6746272, “Towards discovery of novel scaffold with potent antiangiogenic activity; design, synthesis of pyridazine based compounds, impact of hinge interaction, and accessibility of their bioactive conformation on VEGFR-2 activities” (Journal of Enzyme Inhibition and Medicinal Chemistry, 2019).
Where two headings read alike, the source gives them in different places. Values belong to the compound of their own block, whether it stands above or below them.

Assays:
HUVEC cell line = test: In vitro HUVEC anti-proliferative assay (alamar Blue); format: cell-based, human; conditions: for HUVEC proliferation (%): 72 h, Mean ± SD, n = 3
Experimental: Compounds 8c, 8f, 15, 18b, and 18c were selected to be tested for their ability to in vitro inhibit VEGF-induced HUVEC cell line proliferation, using doxorubicin as a control.
The assay was performed at single dose concentration of 10 µM, where HUVEC, human (Life Technologies # C-003-5C) served as the cells’ source, in Medium 200 (Life Technologies # M-200–500), with large vessel endothelial supplement (LVES) (Life Technologies # A14608-01) and Pen-strep (Hyclone # SV30010). Alamar Blue (Life Technologies # DAL1025) was used as the fluorescent reagent.
HUVEC cells were cultured in Medium 200 with 2% LVES and 1% Pen-strep. To perform the proliferation assay, HUVEC cells were seeded at 5000 cells/50 μl/well in a 96-well black clear bottom tissue culture plate. Cells were incubated at 37 °C and 5% CO2 overnight to allow them to recover and reattach. Next day cells were treated with test compounds for 72 h. After treatment, cell proliferation was measured by Fluorescent quantitation of alamar Blue reagent. The alamar Blue assay incorporates a fluorometric/colorimetric growth indicator based on detection of metabolic activity. Specifically, resazurin, the active ingredient in the alamar Blue reagent, is blue in colour and virtually non-fluorescent. Upon entering cells, resazurin is reduced to resorufin, a compound that is red in colour and highly fluorescent. Continued cell growth maintains a reduced environment, therefore increasing the overall fluorescence and colour of the media surrounding cells. […] To perform the alamar Blue assay, […] of alamar Blue reagent was added to each well and the plate was incubated at 37 °C for an additional 2 h. Fluorescence intensity was measured at an excitation of 530 nm and an emission of 590 nm using a BioTek SynergyTM 2 microplate reader.
Cell proliferation assays were performed in triplicate at each concentration. The fluorescent intensity data were analysed using the computer software, Graphpad Prism. In the absence of the compound, the fluorescent intensity (Ft) in each data set was defined as 100%. In the absence of cells, the fluorescent intensity (Fb) in each data set was defined as 0%. The percent cell in the presence of each compound was calculated according to the following equation: % Cell = (F – Fb)/(Ft – Fb), where F = the fluorescent intensity in the presence of the compound, Fb = the fluorescent intensity in the absence of cells, and Ft = the fluorescent intensity in the absence of the compound.

NCI 56 cell line panel = test: NCI primary anticancer assay, mean over panel (SRB); format: cell-based, human; conditions: 10–5 M
Experimental: The selected compounds were evaluated at primary anticancer assay against a panel of 56 cancer lines at concentration 10–5 M. The human tumour cell lines were derived from nine different cancer types: leukaemia, melanoma, lung, colon, CNS, ovarian, renal, prostate, and breast cancers.
A 48 h drug exposure protocol was used and sulforhodamine B (SRB) protein assay was applied to estimate the cell viability and growth. The mean percentages GI (GI%) of the tested compounds over the full panel of cell lines are illustrated in Figure 4.
The cytotoxicity assays were performed at NCI, Bethesda, United States (against 56 cell lines). […]
Experimental drugs were solubilised in dimethyl sulfoxide at 400-fold the desired final maximum test concentration and stored frozen prior to use. […] Bound stain was subsequently solubilised with 10 mM trizma base, and the absorbance was read on an automated plate reader at a wavelength of 515 nm. […] Using the seven absorbance measurements [time zero (Tz), control growth (C), and test growth in the presence of drug at the five concentration levels (Ti)], the percentage growth was calculated at each of the drug concentration levels. Percentage GI was calculated as: [(Ti – Tz)/(C – Tz)] × 100 for concentrations for which Ti ≥ Tz [(Ti – Tz)/Tz] × 100 for concentrations for which Ti < Tz.

VEGFR-2 = molecular target: T1, VEGFR-2 (Homo sapiens, UniProt P35968); test: VEGFR-2 kinase inhibition assay (Alpha Screen, phosphotyrosine antibody); format: biochemical; conditions: for inhibition at 10 µM: read-out: VEGFR-2% inhibition
T1 construct: purchased Millipore, United Kingdom
Experimental: The kinase activity of VEGFR-2 was measured by use of a phosphotyrosine antibody with the
Alpha Screen system (PerkinElmer, United States) according to manufacturer’s instructions. Enzyme reactions were performed in 50 mM Tris–HCl pH 7.5, 5 mM MnCl2, 5 mM MgCl2, 0.01% Tween-20 and 2 mM DTT, containing 10 μM ATP, 0.1 μg/mL biotinylated poly-GluTyr (4:1), and 0.1 nM of VEGFR-2 (Millipore, United Kingdom). Prior to catalytic initiation with ATP, the tested compounds at final concentrations ranging from 0 to 100 μg/mL and enzyme were incubated for 5 min at room temperature. […] Plate was incubated in the dark overnight and then read by ELISA Reader (PerkinElmer, United States). Wells containing the substrate and the enzyme without compounds were used as reaction control. Wells containing biotinylated poly-GluTyr (4:1) and enzyme without ATP were used as basal control. Percent inhibition was calculated by the comparison of compounds treated to control incubations.

PDGFRα = system: PDGFRα; set-up: method as in PMID 23123015, PMID 23305239; conditions: read-out: inhibits PDGFRα; cited from earlier work
VEGFR3 = system: VEGFR3; set-up: method as in PMID 23123015, PMID 23305239; conditions: read-out: inhibits VEGFR3; cited from earlier work
VEGFR2 = system: VEGFR2; set-up: method as in PMID 23123015, PMID 23305239; conditions: read-out: inhibits VEGFR2; cited from earlier work
PDGFRβ = system: PDGFRβ; set-up: method as in PMID 23123015, PMID 23305239; conditions: read-out: inhibits PDGFRβ; cited from earlier work
VEGFR1 = system: VEGFR1; set-up: method as in PMID 23123015, PMID 23305239; conditions: read-out: inhibits VEGFR1; cited from earlier work
[1] = 5 concentrations 1 nM - 10 µM, Mean ± SD, n = 3, read-out: VEGFR-2 IC50
[2] = single concentration of 10 µM, Mean ± SD, n = 3

T1 sequence (P35968 20-1356): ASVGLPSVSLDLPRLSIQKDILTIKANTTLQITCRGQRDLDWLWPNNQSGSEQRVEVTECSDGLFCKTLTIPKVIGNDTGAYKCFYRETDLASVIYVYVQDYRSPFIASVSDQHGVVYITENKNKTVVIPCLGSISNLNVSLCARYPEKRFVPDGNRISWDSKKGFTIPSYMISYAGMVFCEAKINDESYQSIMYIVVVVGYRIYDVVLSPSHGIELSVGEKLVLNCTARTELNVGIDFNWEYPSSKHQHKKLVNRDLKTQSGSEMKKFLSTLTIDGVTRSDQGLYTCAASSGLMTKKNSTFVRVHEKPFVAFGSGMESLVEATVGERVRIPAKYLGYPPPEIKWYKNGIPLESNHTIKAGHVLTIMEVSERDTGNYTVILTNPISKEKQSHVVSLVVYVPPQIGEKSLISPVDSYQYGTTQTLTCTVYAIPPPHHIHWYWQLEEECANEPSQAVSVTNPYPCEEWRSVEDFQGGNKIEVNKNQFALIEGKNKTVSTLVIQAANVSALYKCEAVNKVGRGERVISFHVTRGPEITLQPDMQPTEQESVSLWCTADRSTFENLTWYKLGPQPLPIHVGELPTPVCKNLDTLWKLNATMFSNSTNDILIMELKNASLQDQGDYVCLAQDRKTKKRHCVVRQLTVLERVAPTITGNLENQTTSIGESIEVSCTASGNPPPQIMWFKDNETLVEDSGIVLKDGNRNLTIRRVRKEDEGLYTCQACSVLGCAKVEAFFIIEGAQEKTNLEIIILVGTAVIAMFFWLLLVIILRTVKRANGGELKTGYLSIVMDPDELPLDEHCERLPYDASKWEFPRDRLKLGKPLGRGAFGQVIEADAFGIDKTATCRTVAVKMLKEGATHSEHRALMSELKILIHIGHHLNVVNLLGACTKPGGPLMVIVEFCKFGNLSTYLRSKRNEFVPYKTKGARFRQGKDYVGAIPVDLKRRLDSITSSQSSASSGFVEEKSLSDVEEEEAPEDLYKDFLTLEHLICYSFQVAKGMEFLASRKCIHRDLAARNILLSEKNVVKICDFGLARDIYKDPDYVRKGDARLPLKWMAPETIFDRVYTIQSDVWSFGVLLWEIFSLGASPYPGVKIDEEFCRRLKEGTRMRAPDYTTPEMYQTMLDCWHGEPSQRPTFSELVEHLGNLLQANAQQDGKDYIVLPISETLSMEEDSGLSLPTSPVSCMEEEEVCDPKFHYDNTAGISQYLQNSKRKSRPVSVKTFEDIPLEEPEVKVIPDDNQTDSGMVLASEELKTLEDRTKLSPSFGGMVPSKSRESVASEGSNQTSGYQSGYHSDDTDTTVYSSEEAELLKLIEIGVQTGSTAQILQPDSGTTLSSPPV

IC50 (VEGFR-2; [1]): 60.7 ± 0.03 nM
Compound: O=C(Nc1ccc(Oc2ccc(=O)[nH]n2)cc1)Nc1ccc(Cl)c(C(F)(F)F)c1 [Compound 18b, 1–(4-Chloro-3-(trifluoromethyl)phenyl)-3–(4-((6-oxo-1,6-dihydropyridazin-3-yl)oxy)phenyl)urea]
anti-proliferative activity against HUVEC (in words) (HUVEC cell line; 10 μM): potent anti-proliferative activity
HUVEC proliferation (%) (HUVEC cell line; 10 µM): 2.13 ± 0.425%
inhibitory activity against most of the test cell lines (in words) (NCI 56 cell line panel): weak inhibitory activity

melting point: 173 to 175 °C
inhibition at 10 µM (VEGFR-2; [2]): 3.06 ± 0.45%
Compound: O=C(Nc1ccc(Cl)c(Cl)c1)Nc1nnc2ccc(Cl)nn12 [Compound 3]

VEGFR-2% inhibition (VEGFR-2; [2]): 11.93 ± 2.25%
Compound: 1-[4-((6-Chloropyridazin-3-yl)amino)phenyl)-3–(3,4-dichlorophenyl]urea [Compound 11d]

IC50 (VEGFR-2; [1]): 1400 ± 120 nM
IC50 (VEGFR-2; unit given as nm, read-out: VEGFR-2 IC50 (nm)): 1410 nM
Compound: COc1ccc(Nc2ccc(NC(=O)Nc3ccc(Cl)c(C(F)(F)F)c3)cc2)nn1 [Compound 15, 1–(4-Chloro-3-(trifluoromethyl)phenyl)-3–(4-((6-methoxypyridazin-3-yl)amino)phenyl) urea]
HUVEC proliferation (%) (HUVEC cell line; 10 µM): 64.50 ± 2.017%
inhibition at 10 µM (HUVEC cell line; Homo sapiens, HUVEC, 10 µM, read-out: growth inhibition (GI) percent against HUVEC cell line): 35.5%

Compound: Cc1cc(C(=O)Nc2cc(Oc3ccc4nc(NC(=O)C5CC5)cn4n3)ccc2C)n(C)n1 [TAK-593]
IC50 (PDGFRα): 4.3 nM
IC50 (VEGFR3): 1.1 nM
IC50 (VEGFR2): 0.95 nM
IC50 (PDGFRβ): 13 nM
IC50 (VEGFR1): 3.2 nM

VEGFR-2% inhibition (VEGFR-2; [2]): 13.10 ± 1.71%
Compound: 1-[3-Methoxyphenyl)-3–(6-morpholino-[1, 2, 4]triazolo[4,3-b]pyridazin-3-yl]urea [Compound 5c]

VEGFR-2% inhibition (VEGFR-2; [2]): 5.07 ± 0.61%
Compound: 1-[3,4-Dichlorophenyl)-3–(6-morpholino-[1, 2, 4]triazolo[4,3-b]pyridazin-3-yl]urea [Compound 5a]

IC50 (VEGFR-2; [1]): 1300 ± 140 nM
Compound: O=C(Nc1ccc(-c2ccc(=O)[nH]n2)cc1)Nc1ccc(Cl)c(C(F)(F)F)c1 [Compound 8c]
HUVEC proliferation (%) (HUVEC cell line; 10 µM): 14.75 ± 0.059%

VEGFR-2% inhibition (VEGFR-2; [2]): 7.07 ± 1.11%
Compound: 1-[4-Chloro-3-(trifluoromethyl)phenyl)-3–(6-morpholino-[1, 2, 4]triazolo[4,3-b]pyridazin-3-yl]urea [Compound 5b]

VEGFR-2% inhibition (VEGFR-2; [2]): 27.03 ± 3.29%
Compound: 1-[4-Chloro-3-(trifluoromethyl)phenyl)-3–(3-(6-oxo-1,6-dihydropyridazin-3-yl)phenyl]urea [Compound 8e]

Compound: CN[C@@H]1C[C@H]2O[C@@](C)([C@@H]1OC)n1c3ccccc3c3c4c(c5c6ccccc6n2c5c31)C(=O)NC4 [Strausporine, staurosporine, reference compound]
inhibition at 10 µM (VEGFR-2): 90.5 ± 4.53%
